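The compound was tested at five concentrations on cells cultured in 96-well plates, with a 48-hour exposure period. TGI denotes the concentration required for complete inhibition of growth.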
Tests used:
Experiment in all cases: NCI-60 cell line screen, 48 h
786-0 renal = system: 786-0 renal
A498 renal = system: A498 renal
A549 NSCLC = system: A549 NSCLC
ACHN renal = system: ACHN renal
BT-549 breast = system: BT-549 breast
CAKI-1 renal = system: CAKI-1 renal
CCRF-CEM leukemia = system: CCRF-CEM leukemia
COLO 205 colon = system: COLO 205 colon
DU-145 prostate = system: DU-145 prostate
EKVX NSCLC = system: EKVX NSCLC
HCC-2998 colon = system: HCC-2998 colon
HCT-116 colon = system: HCT-116 colon
HCT-15 colon = system: HCT-15 colon
HL-60(TB) leukemia = system: HL-60(TB) leukemia
HOP-62 NSCLC = system: HOP-62 NSCLC
HOP-92 NSCLC = system: HOP-92 NSCLC
HS 578T breast = system: HS 578T breast
HT29 colon = system: HT29 colon
IGROV1 ovarian = system: IGROV1 ovarian
K-562 leukemia = system: K-562 leukemia
KM12 colon = system: KM12 colon
LOX IMVI melanoma = system: LOX IMVI melanoma
M14 melanoma = system: M14 melanoma
MALME-3M melanoma = system: MALME-3M melanoma
MCF7 breast = system: MCF7 breast
MDA-MB-231 breast = system: MDA-MB-231 breast
MDA-MB-435 = system: MDA-MB-435
MDA-N = system: MDA-N
MOLT-4 leukemia = system: MOLT-4 leukemia
NCI-H226 lung = system: NCI-H226 lung
NCI-H23 lung = system: NCI-H23 lung
NCI-H460 lung = system: NCI-H460 lung
NCI-H522 lung = system: NCI-H522 lung
NCI/ADR-RES ovarian = system: NCI/ADR-RES ovarian
OVCAR-3 ovarian = system: OVCAR-3 ovarian
OVCAR-4 ovarian = system: OVCAR-4 ovarian
OVCAR-5 ovarian = system: OVCAR-5 ovarian
OVCAR-8 ovarian = system: OVCAR-8 ovarian
PC-3 prostate = system: PC-3 prostate
RPMI-8226 leukemia = system: RPMI-8226 leukemia
RXF 393 renal = system: RXF 393 renal
SF-268 CNS = system: SF-268 CNS
SF-295 CNS = system: SF-295 CNS
SF-539 CNS = system: SF-539 CNS
SK-MEL-2 melanoma = system: SK-MEL-2 melanoma
SK-MEL-28 melanoma = system: SK-MEL-28 melanoma
SK-MEL-5 melanoma = system: SK-MEL-5 melanoma
SK-OV-3 ovarian = system: SK-OV-3 ovarian
SN12C renal = system: SN12C renal
SNB-19 CNS = system: SNB-19 CNS
SR leukemia = system: SR leukemia
SW-620 colon = system: SW-620 colon
T-47D breast = system: T-47D breast
TK-10 renal = system: TK-10 renal
U251 CNS = system: U251 CNS
UACC-257 melanoma = system: UACC-257 melanoma
UACC-62 melanoma = system: UACC-62 melanoma
UO-31 renal = system: UO-31 renal
SNB-75 CNS = system: SNB-75 CNS

## NC1CCCCC1NCCNC1CCCCC1N (stereo not given)
786-0 renal
  TGI: > 100 µM
A498 renal
  TGI: > 100 µM
A549 NSCLC
  TGI: 87.6 µM
ACHN renal
  TGI: > 100 µM
BT-549 breast
  TGI: > 100 µM
CAKI-1 renal
  TGI: > 100 µM
CCRF-CEM leukemia
  TGI: > 100 µM
COLO 205 colon
  TGI: 30.8 µM
DU-145 prostate
  TGI: > 100 µM
EKVX NSCLC
  TGI: > 100 µM
HCC-2998 colon
  TGI: 81.7 µM
HCT-116 colon
  TGI: > 100 µM
HCT-15 colon
  TGI: > 100 µM
HL-60(TB) leukemia
  TGI: > 100 µM
HOP-62 NSCLC
  TGI: > 100 µM
HOP-92 NSCLC
  TGI: > 100 µM
HS 578T breast
  TGI: > 100 µM
HT29 colon
  TGI: 36 µM
IGROV1 ovarian
  TGI: > 100 µM
K-562 leukemia
  TGI: > 100 µM
KM12 colon
  TGI: > 100 µM
LOX IMVI melanoma
  TGI: > 100 µM
M14 melanoma
  TGI: > 100 µM
MALME-3M melanoma
  TGI: > 100 µM
MCF7 breast
  TGI: > 100 µM
MDA-MB-231 breast
  TGI: > 100 µM
MDA-MB-435
  TGI: > 100 µM
MDA-N
  TGI: > 100 µM
MOLT-4 leukemia
  TGI: > 100 µM
NCI-H226 lung
  TGI: > 100 µM
NCI-H23 lung
  TGI: 96.8 µM
NCI-H460 lung
  TGI: > 100 µM
NCI-H522 lung
  TGI: > 100 µM
NCI/ADR-RES ovarian
  TGI: > 100 µM
OVCAR-3 ovarian
  TGI: > 100 µM
OVCAR-4 ovarian
  TGI: > 100 µM
OVCAR-5 ovarian
  TGI: 56.6 µM
OVCAR-8 ovarian
  TGI: > 100 µM
PC-3 prostate
  TGI: > 100 µM
RPMI-8226 leukemia
  TGI: > 100 µM
RXF 393 renal
  TGI: > 100 µM
SF-268 CNS
  TGI: > 100 µM
SF-295 CNS
  TGI: > 100 µM
SF-539 CNS
  TGI: > 100 µM
SK-MEL-2 melanoma
  TGI: > 100 µM
SK-MEL-28 melanoma
  TGI: > 100 µM
SK-MEL-5 melanoma
  TGI: > 100 µM
SK-OV-3 ovarian
  TGI: > 100 µM
SN12C renal
  TGI: > 100 µM
SNB-19 CNS
  TGI: > 100 µM
SR leukemia
  TGI: > 100 µM
SW-620 colon
  TGI: > 100 µM
T-47D breast
  TGI: > 100 µM
TK-10 renal
  TGI: > 100 µM
U251 CNS
  TGI: > 100 µM
UACC-257 melanoma
  TGI: > 100 µM
UACC-62 melanoma
  TGI: > 100 µM
UO-31 renal
  TGI: > 100 µM

## Cn1c2ccc(Cl)cc2c2ccc3c(c21)C(=O)C=CC3=O
786-0 renal
  TGI: > 10 µM
A498 renal
  TGI: > 10 µM
A549 NSCLC
  TGI: > 10 µM
ACHN renal
  TGI: > 10 µM
BT-549 breast
  TGI: > 10 µM
CAKI-1 renal
  TGI: > 10 µM
CCRF-CEM leukemia
  TGI: > 10 µM
COLO 205 colon
  TGI: > 10 µM
DU-145 prostate
  TGI: > 10 µM
EKVX NSCLC
  TGI: > 10 µM
HCC-2998 colon
  TGI: > 10 µM
HCT-116 colon
  TGI: > 10 µM
HCT-15 colon
  TGI: > 10 µM
HL-60(TB) leukemia
  TGI: > 10 µM
HOP-62 NSCLC
  TGI: > 10 µM
HOP-92 NSCLC
  TGI: > 10 µM
HS 578T breast
  TGI: > 10 µM
HT29 colon
  TGI: > 10 µM
IGROV1 ovarian
  TGI: > 10 µM
K-562 leukemia
  TGI: > 10 µM
KM12 colon
  TGI: > 10 µM
LOX IMVI melanoma
  TGI: > 10 µM
M14 melanoma
  TGI: > 10 µM
MALME-3M melanoma
  TGI: > 10 µM
MCF7 breast
  TGI: > 10 µM
MDA-MB-231 breast
  TGI: > 10 µM
MDA-MB-435
  TGI: > 10 µM
MDA-N
  TGI: > 10 µM
MOLT-4 leukemia
  TGI: > 10 µM
NCI-H226 lung
  TGI: > 10 µM
NCI-H23 lung
  TGI: > 10 µM
NCI-H460 lung
  TGI: > 10 µM
NCI-H522 lung
  TGI: > 10 µM
NCI/ADR-RES ovarian
  TGI: > 10 µM
OVCAR-3 ovarian
  TGI: > 10 µM
OVCAR-4 ovarian
  TGI: > 10 µM
OVCAR-5 ovarian
  TGI: > 10 µM
OVCAR-8 ovarian
  TGI: > 10 µM
PC-3 prostate
  TGI: > 10 µM
RPMI-8226 leukemia
  TGI: > 10 µM
SF-268 CNS
  TGI: > 10 µM
SF-295 CNS
  TGI: > 10 µM
SF-539 CNS
  TGI: > 10 µM
SK-MEL-2 melanoma
  TGI: > 10 µM
SK-MEL-28 melanoma
  TGI: > 10 µM
SK-MEL-5 melanoma
  TGI: > 10 µM
SK-OV-3 ovarian
  TGI: > 10 µM
SN12C renal
  TGI: > 10 µM
SNB-19 CNS
  TGI: > 10 µM
SNB-75 CNS
  TGI: > 10 µM
SR leukemia
  TGI: > 10 µM
SW-620 colon
  TGI: > 10 µM
T-47D breast
  TGI: > 10 µM
TK-10 renal
  TGI: > 10 µM
U251 CNS
  TGI: > 10 µM
UACC-257 melanoma
  TGI: > 10 µM
UACC-62 melanoma
  TGI: > 10 µM
